# Laboratory results: the supplement of paper PMC11061612
# Experiments:
# Assay in all cases: Bliss excess, mean over the matrix (fraction); higher = more synergy
# [1] = system: HC-1 (Other Blood Carcinomas)
# Outline: (§1)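 Bliss excess equals the observed combination effect minus the expected value EA + EB − EA·EB, where EA and EB are the effects of each agent alone. Combination Emax is the second-highest inhibition within the matrix. Inhibition was scaled from CellTiter-Glo 2.0 luminescence, with 0 set by vehicle wells and 1 by blank wells, after 72 hours of two-drug dosing of cells plated in 1536-well plates.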
# [2] = system: VMRC-LCD (Lung Adenocarcinoma)
# Outline: as §1
# [3] = system: KINGS-1 (Low Grade Glioma)
# Outline: as §1
# [4] = system: JHH-7 (Hepatocellular Carcinoma)
# Outline: as §1
# [5] = system: SCC-3 (B-Cell Non-Hodgkin's Lymphoma)
# Outline: as §1
# [6] = system: PF-382 (T-Lymphoblastic Leukemia)
# Outline: as §1
# [7] = system: LOU-NH91 (Squamous Cell Lung Carcinoma)
# Outline: as §1
# [8] = system: OCUM-1 (Gastric Carcinoma)
# Outline: as §1
# [9] = system: KLE (Endometrial Carcinoma)
# Outline: as §1
# [10] = system: KP-2 (Pancreatic Carcinoma)
# Outline: as §1
# [11] = system: KYSE-50 (Esophageal Squamous Cell Carcinoma)
# Outline: as §1
# [12] = system: H-EMC-SS (Chondrosarcoma)
# Outline: as §1
# [13] = system: KU-19-19 (Bladder Carcinoma)
# Outline: as §1
# [14] = system: OVISE (Ovarian Carcinoma)
# Outline: as §1
# [15] = system: NCI-H1573 (Lung Adenocarcinoma)
# Outline: as §1
# [16] = system: MFE-319 (Endometrial Carcinoma)
# Outline: as §1
# EW-3 (Ewing's Sarcoma) = system: EW-3 (Ewing's Sarcoma)
# Outline: as §1
# GOTO (Neuroblastoma) = system: GOTO (Neuroblastoma)
# Outline: as §1
# [17] = system: BV-173 (Chronic Myelogenous Leukemia)
# Outline: as §1
# [18] = system: EBC-1 (Squamous Cell Lung Carcinoma)
# Outline: as §1
SMILES,Bliss excess [1],Bliss excess [2],Bliss excess [3],Bliss excess [4],Bliss excess [5],Bliss excess [6],Bliss excess [7],Bliss excess [8],Bliss excess [9],Bliss excess [10],Bliss excess [11],Bliss excess [12],Bliss excess [13],Bliss excess [14],Bliss excess [15],Bliss excess [16],Bliss excess (EW-3 (Ewing's Sarcoma)),Bliss excess (GOTO (Neuroblastoma)),Bliss excess [17],Bliss excess [18]
"Cc1cc2ncnn2cc1Nc1ncc2c(n1)n(C1CCOCC1)c(=O)n2C [AZD7648] + C[C@@H]1COCCN1C2=NC(=NC(=C2)C3(CC3)[S@](=N)(=O)C)C4=C5C=CNC5=NC=C4 [AZD6738] (first compound max 10 µM, 7x7, partner max 10 µM)",-0.131,0.0143,0.0412,0.0247,-0.0083,0.0263,0.0337,0.009,-0.0639,0.0004,-0.0089,0.0095,-0.0127,0.0508,0.0363,0.0546,-0.0607,-0.0205,-0.0194,0.0513
"COc1nnc2ccc(N3CCC(c4ccc(OCCN5CCN(C)C(=O)[C@H]5C)cc4)CC3)nn12 [AZD5153] + CCN(CCO)CCCOc1ccc2c(Nc3cc(CC(=O)Nc4cccc(F)c4)[nH]n3)ncnc2c1 [AZD2811] (first compound max 1 µM, 7x7, partner max 1 µM)",-0.0099,0.0435,-0.0374,-0.0696,0.0474,-0.0108,-0.0363,-0.0194,-0.0704,-0.0065,-0.0309,-0.0226,-0.0741,-0.017,-0.0621,-0.085,-0.115,-0.0561,-0.0561,-0.0274
"CC(=O)c1c(C)c2cnc(Nc3ccc(N4CCNCC4)cn3)nc2n(C2CCCC2)c1=O [Palbociclib] + Cc1c2c(nn1C)CSCc1cc(n(C)n1)CSc1cc(c3ccccc3c1)OCCCc1c(C(=O)O)n(C)c3c-2c(Cl)ccc13 [AZD5991] (first compound max 10 µM, 7x7, partner max 1 µM)",-0.152,-0.0288,0.0346,-0.0346,0.0284,-0.0193,-0.0901,-0.0315,-0.082,-0.0445,-0.0658,0.0444,-0.0215,-0.0286,-0.0539,-0.111,-0.0003,0.0483,-0.105,0.0345
"COc1cccc(OCCCN)c1-c1cc(Nc2cnc(C#N)cn2)n[nH]1 [Prexasertib] + C[C@@H]1COCCN1C2=NC(=NC(=C2)C3(CC3)[S@](=N)(=O)C)C4=C5C=CNC5=NC=C4 [AZD6738] (first compound max 1 µM, 7x7, partner max 10 µM)",-0.0139,0.0201,0.0426,0.0381,-0.0201,-0.0558,0.0295,-0.0698,-0.0393,-0.0324,0.0034,-0.0013,-0.0796,0.0341,0.0055,-0.0238,-0.0275,-0.0866,-0.0473,-0.0113
"CN(CCO)CC[C@H](CSc1ccccc1)Nc1ccc(S(=O)(=O)NC(=O)c2ccc(N3CCC([C@@H](O)c4ccccc4-c4ccc(Cl)cc4)CC3)cc2)cc1S(=O)(=O)C(F)(F)F [AZD4320] + C[C@@H](Nc1cc(F)cc(F)c1)c1cc(C(=O)N(C)C)cc2c(=O)cc(N3CCOCC3)oc12 [AZD8186] (first compound max 1 µM, 7x7, partner max 3 µM)",0.0252,-0.0206,0.0959,0.0257,0.0118,0.0836,-0.0046,-0.0284,0.0304,0.0419,0.0097,-0.0277,0.0039,-0.0322,-0.0545,0.0048,-0.0324,0.0279,0.0166,0.0576
"COc1cccc(OCCCN)c1-c1cc(Nc2cnc(C#N)cn2)n[nH]1 [Prexasertib] + Cc1cc2ncnn2cc1Nc1ncc2c(n1)n(C1CCOCC1)c(=O)n2C [AZD7648] (first compound max 1 µM, 7x7, partner max 10 µM)",0.0069,-0.0323,-0.0464,-0.0143,-0.0082,-0.0131,0.007,0.0005,0.0213,0.0258,-0.0296,-0.021,-0.0038,-0.0333,0.0058,-0.0064,0.0201,-0.0243,-0.0218,-0.0054
"COc1cccc2c1C(=O)c1c(O)c3c(c(O)c1C2=O)C[C@@](O)(C(=O)CO)C[C@@H]3O[C@H]1C[C@H](N)[C@H](O)[C@H](C)O1 [Doxorubicin] + Cc1cc2ncnn2cc1Nc1ncc2c(n1)n(C1CCOCC1)c(=O)n2C [AZD7648] (first compound max 1 µM, 7x7, partner max 10 µM)",0.0693,0.0256,0.0173,0.0271,0.158,0.109,0.0236,0.0162,-0.002,0.0223,0.0331,-0.0179,0.0843,0.0341,-0.0038,0.0152,0.005,0.0644,0.0953,0.0275
"CC1(C)CCC(CN2CCN(c3ccc(C(=O)NS(=O)(=O)c4ccc(NCC5CCOCC5)c([N+](=O)[O-])c4)c(Oc4cnc5[nH]ccc5c4)c3)CC2)=C(c2ccc(Cl)cc2)C1 [Venetoclax] + C[C@@H]1COCCN1C2=NC(=NC(=C2)C3(CC3)[S@](=N)(=O)C)C4=C5C=CNC5=NC=C4 [AZD6738] (first compound max 1 µM, 7x7, partner max 10 µM)",0.0289,-0.0393,-0.0432,-0.0318,0.013,0.0366,-0.0023,-0.0242,-0.0538,-0.0225,-0.0492,-0.0416,-0.0844,-0.0658,-0.0313,-0.0494,0.0185,-0.039,-0.0634,-0.0731
"CCN(CCO)CCCOc1ccc2c(Nc3cc(CC(=O)Nc4cccc(F)c4)[nH]n3)ncnc2c1 [AZD2811] + O=C(c1cc(Cc2n[nH]c(=O)c3ccccc23)ccc1F)N1CCN(C(=O)C2CC2)CC1 [Olaparib] (first compound max 1 µM, 7x7, partner max 10 µM)",0.0928,-0.0949,-0.0579,0.0118,0.0494,-0.0335,0.0461,0.0383,-0.282,-0.0123,0.0397,-0.0353,0.0173,-0.0255,-0.016,0.0376,-0.103,0.0341,-0.0212,-0.0077
"C[C@@H](c1ccc2nccn2c1)n1nnc2ncc(-c3cnn(C)c3)nc21 [Savolitinib] + Cc1c2c(nn1C)CSCc1cc(n(C)n1)CSc1cc(c3ccccc3c1)OCCCc1c(C(=O)O)n(C)c3c-2c(Cl)ccc13 [AZD5991] (first compound max 1 µM, 7x7, partner max 1 µM)",-0.0199,-0.0198,0.0058,-0.0404,0.0239,-0.0272,-0.0328,-0.0085,-0.0822,-0.0468,-0.0382,-0.0081,-0.0494,-0.0291,-0.036,-0.0751,-0.0011,-0.0227,-0.0404,0.0076
"C[C@@H](c1ccc2nccn2c1)n1nnc2ncc(-c3cnn(C)c3)nc21 [Savolitinib] + CC1(C)CCC(CN2CCN(c3ccc(C(=O)NS(=O)(=O)c4ccc(NCC5CCOCC5)c([N+](=O)[O-])c4)c(Oc4cnc5[nH]ccc5c4)c3)CC2)=C(c2ccc(Cl)cc2)C1 [Venetoclax] (first compound max 1 µM, 7x7, partner max 1 µM)",-0.0824,-0.0153,-0.0566,-0.0342,-0.0166,-0.0402,-0.0801,-0.0368,-0.111,-0.0518,-0.0636,-0.0186,-0.0468,-0.0481,-0.0802,-0.0764,0.0364,-0.0228,0.0064,-0.0642
"COc1cccc(OCCCN)c1-c1cc(Nc2cnc(C#N)cn2)n[nH]1 [Prexasertib] + C=CCn1c(=O)c2cnc(Nc3ccc(N4CCN(C)CC4)cc3)nc2n1-c1cccc(C(C)(C)O)n1 [AZD1775] (first compound max 1 µM, partner max 1 µM)",0.0149,-0.0072,0.072,0.107,0.051,-0.0038,0.0332,0.0518,0.112,0.112,0.0242,0.0712,0.0222,0.0144,0.108,-0.0049,0.0286,0.0074,-0.0251,0.0628
"Cc1cc2ncnn2cc1Nc1ncc2c(n1)n(C1CCOCC1)c(=O)n2C [AZD7648] + C=CCn1c(=O)c2cnc(Nc3ccc(N4CCN(C)CC4)cc3)nc2n1-c1cccc(C(C)(C)O)n1 [AZD1775] (first compound max 10 µM, partner max 1 µM)",-0.106,-0.0057,-0.0041,-0.0337,-0.0277,-0.0029,0.012,-0.0244,0.0159,-0.014,0.0011,-0.028,-0.0201,-0.0043,-0.0215,-0.0055,-0.0894,-0.0421,0.0237,-0.0041
"CN(C)CCCOc1ccc(-c2ccc3ncc4c(c3c2)n(C2CCOCC2)c(=O)n4C)cn1 [AZD0156] + C[C@@H]1COCCN1C2=NC(=NC(=C2)C3(CC3)[S@](=N)(=O)C)C4=C5C=CNC5=NC=C4 [AZD6738] (first compound max 1 µM, 7x7, partner max 10 µM)",-0.0214,-0.0343,-0.0474,0.0082,0.0521,0.0357,-0.0001,0.0437,-0.0567,0.0173,0.0101,-0.0707,0.0275,0.0317,-0.0098,-0.0027,-0.0721,-0.0394,0.0179,0.0195
